Results reported in BindingDB's records for patent US20250340565 (AdoRx Therapeutics, 2025).
pIC50: −log10 of the molar value.

Target: T1, 5'-nucleotidase [27-547] (UniProt P21589)
T1 construct: 27-547
T1 sequence (P21589 whole entry): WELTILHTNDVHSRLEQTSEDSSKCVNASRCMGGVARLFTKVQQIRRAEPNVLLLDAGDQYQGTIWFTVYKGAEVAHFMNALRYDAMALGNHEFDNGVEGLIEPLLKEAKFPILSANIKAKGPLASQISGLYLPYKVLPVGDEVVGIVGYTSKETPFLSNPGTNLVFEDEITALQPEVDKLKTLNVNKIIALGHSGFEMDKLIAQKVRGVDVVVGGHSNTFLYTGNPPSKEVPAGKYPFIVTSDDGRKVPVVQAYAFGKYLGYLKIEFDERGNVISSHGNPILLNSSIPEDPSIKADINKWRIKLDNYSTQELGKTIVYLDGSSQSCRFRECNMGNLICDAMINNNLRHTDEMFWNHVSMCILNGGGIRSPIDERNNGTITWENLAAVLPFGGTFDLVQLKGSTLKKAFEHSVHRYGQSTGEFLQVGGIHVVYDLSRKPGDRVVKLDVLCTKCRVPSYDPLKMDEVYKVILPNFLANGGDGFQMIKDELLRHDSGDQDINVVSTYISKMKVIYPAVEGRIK
Assay: CD73 Inhibition Assay
Experimental: Compound inhibition of human (h)CD73 (amino acids Trp27-Lys547, R&D Systems 5795-EN-500) enzymatic activity was tested via the Malachite Green Phosphate Detection Kit (R&D DY996). Experiments were performed in 20 μL Tris buffer (25 mM Tris pH 7.5, 5 mM MgCl2, 0.002% Tween20), with 250 pM of hCD73. Test compounds of interest were prepared in a threefold serial dilution in DMSO and added to the assay to give the appropriate final concentration, with the assay DMSO concentration being 1%. Compounds were pre-incubated for 20 minutes with hCD73 in a 384 well clear plate (Greiner 781101), followed by the addition of adenosine monophosphate (AMP) to 12.5 μM. The enzymatic reaction was carried out for 20 min at room temperature. 5 μL of Malachite kit reagent A was added to stop the reaction (contains 3M H2SO4) and after 10 min, 5 μL of Malachite kit reagent B was added (Malachite Green). After 30 min, absorbance at 620 nm was read on a BMG Pherastar FSX.

pIC50: 6.05
SMILES: O=c1[nH]cc(-n2cc3c(N4C[C@@H]5COC[C@H]5C4)ncnc3n2)c(=O)[nH]1 [US20250340565, Example 13.10]
